Data taken from PMC9369419 (International Journal of Molecular Sciences, 2022).

How the values were obtained:
human mGluR5 = target: T1, human mGluR5 (Homo sapiens, UniProt P41594); assay: mGluR5 functional assay (IP1 accumulation, HEK293A cells); assay type: cell-based; conditions: 0.1 mM compound
T1 construct: Flag; expressed in transfected cells; host or cells: HEK293A (transient, Lipofectamine 2000)
Excerpt: Dulbecco’s modified Eagle medium (DMEM), dialyzed fetal bovine serum (FBS), Opti-MEM, penicillin-streptomycin, Dulbecco’s phosphate-buffered saline (DPBS), Hank’s balanced salt solution (HBSS) and Lipofectamine 2000 were purchased from Thermo Fisher Scientific (Waltham, MA, USA). An IP-One Gq kit was purchased from Cisbio (Codolet, France). Quisqualate and poly-D-lysine (PDL) hydrobromide were purchased from Sigma-Aldrich (St. Louis, MO, USA). Falcon clear, tissue culture-treated 96-well plates were from Corning Inc. (Corning, NY, USA). OptiPlate-384 white, opaque 384-well plates were from PerkinElmer, (Waltham, MA, USA). L-AP4 and LY341495 were purchased from Tocris Bioscience (Bristol, UK). The HEK293A cells were a kind gift from Dr. Asuka Inoue (Tohoku University, Sendai, Japan). Plasmids encoding human mGluR4 and Flag-tagged human mGluR5 were kind gifts from Jesper M. Mathiesen (University of Copenhagen, København, Denmark). […]
Cell culture and IP1 Assay. […] IP1 accumulation was measured on an EnVision 2104 Multilabel Reader using a 340/60 nm excitation filter and 615/8.5 nm (donor) and 665/7.5 nm (acceptor) emission filters. HTRF ratios were calculated as the ratio of acceptor over donor emission (665 nm/615 nm) and converted to IP1 concentrations with an IP1 standard curve according to the instructions from the kit manufacturer.

GluK3 = target: T2, GluK3 (Rattus norvegicus, UniProt P42264); assay: Radioligand binding at recombinant homomeric GluK3 in Sf9 membranes; conditions: recombinant rat homomeric receptor, [3H]-kainic acid, mean ± SEM
T2 construct: made in house; host or cells: Sf9 insect cells (membranes)
T2 sequence (P42264 32-919): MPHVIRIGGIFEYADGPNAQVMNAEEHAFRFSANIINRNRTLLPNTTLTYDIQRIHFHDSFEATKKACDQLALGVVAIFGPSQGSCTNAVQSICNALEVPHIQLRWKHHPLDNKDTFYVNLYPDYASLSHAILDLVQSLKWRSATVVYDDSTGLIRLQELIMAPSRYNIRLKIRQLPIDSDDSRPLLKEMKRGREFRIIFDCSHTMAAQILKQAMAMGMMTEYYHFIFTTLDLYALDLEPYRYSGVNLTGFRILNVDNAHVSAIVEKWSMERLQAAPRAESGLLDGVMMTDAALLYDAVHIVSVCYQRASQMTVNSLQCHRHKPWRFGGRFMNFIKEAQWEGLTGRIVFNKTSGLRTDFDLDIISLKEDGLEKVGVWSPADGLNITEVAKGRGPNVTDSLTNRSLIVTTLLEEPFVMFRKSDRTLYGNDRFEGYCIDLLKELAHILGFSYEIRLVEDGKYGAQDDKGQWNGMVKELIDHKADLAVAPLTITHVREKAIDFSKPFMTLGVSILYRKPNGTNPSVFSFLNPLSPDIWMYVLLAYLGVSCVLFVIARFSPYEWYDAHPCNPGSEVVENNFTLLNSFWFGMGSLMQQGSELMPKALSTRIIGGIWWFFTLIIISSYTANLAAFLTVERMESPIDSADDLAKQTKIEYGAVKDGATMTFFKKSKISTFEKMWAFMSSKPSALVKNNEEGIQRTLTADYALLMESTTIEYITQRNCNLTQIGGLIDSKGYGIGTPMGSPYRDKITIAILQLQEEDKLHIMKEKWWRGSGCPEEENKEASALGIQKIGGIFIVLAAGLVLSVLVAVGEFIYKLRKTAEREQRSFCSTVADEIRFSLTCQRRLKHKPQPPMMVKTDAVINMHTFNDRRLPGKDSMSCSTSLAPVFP
Procedure: (§1) Ligand binding affinities at recombinant rat homomeric GluA2, GluK1−3, and GluK5 were determined as previously detailed. […] The filters were dried at 70 °C for 1 h, and 50 μL/well Microscint 20 (PerkinElmer, Waltham, MA, USA) was added. Radioactivity was detected with a TopCounter (PerkinElmer, Waltham, MA, USA). GluA2 and GluK5 assays were filtered on GF/C type filters using Millipore 12-well filtration manifolds (Merck Life Science, Søborg, Denmark) and washed twice with ice-cold assay buffer. Filters were placed in pony vials (PerkinElmer, Waltham, MA, USA), 3 mL of Ultima Gold scintillation fluid (PerkinElmer, Waltham, MA, USA) was added, and DPM (disintegrations per minute) were determined using a TriCarb 2900 scintillation counter (PerkinElmer, Waltham, MA, USA).
(§2) All competition curves (n ≥ 3 per ligand) were determined in triplicate. Data were analyzed using GraphPad Prism 6 (GraphPad Software, San Diego, CA, USA) to determine ligand affinity (Ki) and Hill coefficient (nH) using the one-site Ki and four-parameter logistics equations, respectively.

GluK5 = target: T3, GluK5 (Rattus norvegicus, UniProt Q63273); assay: Radioligand binding at recombinant homomeric GluK5 in Sf9 membranes; conditions: recombinant rat homomeric receptor, [3H]-kainic acid, mean ± SEM
T3 construct: made in house; host or cells: Sf9 insect cells (membranes)
T3 sequence (Q63273 15-979): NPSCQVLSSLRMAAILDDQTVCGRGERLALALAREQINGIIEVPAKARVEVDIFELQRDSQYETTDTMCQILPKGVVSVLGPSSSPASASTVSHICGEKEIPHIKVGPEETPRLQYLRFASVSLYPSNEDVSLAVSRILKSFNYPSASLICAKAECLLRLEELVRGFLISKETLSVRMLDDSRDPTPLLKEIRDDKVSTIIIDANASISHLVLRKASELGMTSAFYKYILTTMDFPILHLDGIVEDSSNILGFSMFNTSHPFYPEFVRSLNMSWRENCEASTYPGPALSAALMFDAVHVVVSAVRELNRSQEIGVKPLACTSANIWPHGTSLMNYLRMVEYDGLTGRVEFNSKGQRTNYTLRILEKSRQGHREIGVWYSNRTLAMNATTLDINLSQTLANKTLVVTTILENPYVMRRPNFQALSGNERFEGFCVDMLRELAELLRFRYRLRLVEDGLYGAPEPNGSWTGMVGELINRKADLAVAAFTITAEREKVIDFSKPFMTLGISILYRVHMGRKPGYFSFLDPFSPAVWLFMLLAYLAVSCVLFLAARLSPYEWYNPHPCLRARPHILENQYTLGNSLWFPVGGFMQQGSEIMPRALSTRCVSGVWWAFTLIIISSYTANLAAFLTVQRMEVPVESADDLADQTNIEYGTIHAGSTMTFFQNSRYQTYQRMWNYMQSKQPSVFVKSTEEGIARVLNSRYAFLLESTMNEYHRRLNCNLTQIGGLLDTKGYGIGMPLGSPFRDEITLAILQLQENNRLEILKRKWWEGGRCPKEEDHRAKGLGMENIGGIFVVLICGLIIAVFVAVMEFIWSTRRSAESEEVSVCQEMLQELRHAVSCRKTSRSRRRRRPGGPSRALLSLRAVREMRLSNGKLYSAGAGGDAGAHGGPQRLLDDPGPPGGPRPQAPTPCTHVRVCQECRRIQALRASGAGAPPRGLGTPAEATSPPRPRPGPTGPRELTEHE
Procedure: as §1, §2

T1 sequence (P41594 21-1212): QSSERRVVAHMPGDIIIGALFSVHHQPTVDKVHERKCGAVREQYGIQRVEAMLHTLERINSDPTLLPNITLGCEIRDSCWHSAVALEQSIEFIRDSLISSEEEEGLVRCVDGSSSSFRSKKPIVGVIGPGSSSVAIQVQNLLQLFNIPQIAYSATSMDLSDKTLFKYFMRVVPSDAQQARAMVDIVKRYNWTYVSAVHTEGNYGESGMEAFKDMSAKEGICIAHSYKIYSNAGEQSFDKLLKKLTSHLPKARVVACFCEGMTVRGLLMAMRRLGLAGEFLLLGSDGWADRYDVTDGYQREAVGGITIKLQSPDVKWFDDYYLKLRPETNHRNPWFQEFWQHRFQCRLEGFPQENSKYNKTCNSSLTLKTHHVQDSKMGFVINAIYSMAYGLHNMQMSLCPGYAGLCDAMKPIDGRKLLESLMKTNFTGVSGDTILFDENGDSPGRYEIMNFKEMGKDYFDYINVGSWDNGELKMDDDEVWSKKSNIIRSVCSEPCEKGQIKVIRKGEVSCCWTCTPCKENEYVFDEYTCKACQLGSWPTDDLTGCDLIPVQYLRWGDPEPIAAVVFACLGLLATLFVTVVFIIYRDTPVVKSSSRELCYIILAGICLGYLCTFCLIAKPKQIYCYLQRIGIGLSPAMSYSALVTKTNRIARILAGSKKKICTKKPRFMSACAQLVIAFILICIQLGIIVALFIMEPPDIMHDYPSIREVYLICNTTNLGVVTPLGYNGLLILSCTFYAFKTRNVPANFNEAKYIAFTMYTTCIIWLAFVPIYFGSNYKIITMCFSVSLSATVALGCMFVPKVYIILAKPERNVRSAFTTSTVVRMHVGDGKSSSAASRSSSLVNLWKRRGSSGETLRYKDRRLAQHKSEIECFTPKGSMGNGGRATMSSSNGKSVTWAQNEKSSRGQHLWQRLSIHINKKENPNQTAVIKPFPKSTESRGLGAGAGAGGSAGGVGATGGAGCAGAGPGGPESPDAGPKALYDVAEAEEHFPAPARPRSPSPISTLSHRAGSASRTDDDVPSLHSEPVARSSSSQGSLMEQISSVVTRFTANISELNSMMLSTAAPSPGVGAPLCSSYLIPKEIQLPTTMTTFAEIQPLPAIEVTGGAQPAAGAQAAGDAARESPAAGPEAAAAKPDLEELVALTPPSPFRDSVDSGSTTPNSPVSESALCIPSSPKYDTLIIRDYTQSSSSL

For `O=C(Nn1c(=O)c(=O)[nH]c2cc(C#Cc3cnc4cccnn34)ccc21)c1ccccc1` [Compound 28], the “agonist or antagonist activity at mGluR5” value (human mGluR5) was “neither agonistic nor antagonistic”, the Ki (GluK3) was 250 ± 10 nM and the Ki (GluK5) was > 100000 nM.
